What follows are compounds tested against T1, p56lck GST-SH2 (lck SH2 domain) (Homo sapiens, UniProt P06239) (assay: Receptor-ligand equilibrium binding constants by surface plasmon resonance (biosensor), lck SH2 domain). Conditions: Table 1, compounds of formula (II).
T1 construct: GST (N)
Procedure: The general methods for the determination of Receptor-Ligand Kinetic and Equilibrium Binding Constants using Surface Plasmon Resonance as applied to the lck SH2 Domain have been described in: M. M. Morelock, R. H. Ingraham, R. Betageri.
General Biosensor Methods.
The mobile phase buffer, 10 mM HEPES, pH 7.4, 150 mM NaCl, and 0.05% P-20, was maintained at a flow rate of 5 μL/min in all experiments. All buffers and protein solutions were filtered through a 0.2 um filter and degassed immediately before use.
Strepavidin was diluted to 0.25 mg/ml in 20 mM NaOAc buffer, pH 4.5 and immobilized by free amine coupling to approximately 3000 RU for all 4 flow cells from a single sensor chip .
Surface Kd Determinations.
The surface was regenerated by 4μL of 20 mM HCl followed by 4 μL of 150 mM Tris base. The values used in the analysis were the equilibrium plateau values from which the sample refractive index has been subtracted. For the data analyzed for linear function the equilibrium plateau values without the sample refractive index subtracted were used. Free solution Kd determinations. In a 96 well microtiter plate 20 nM SH2 domain suspended in running buffer containing 0.2 mg/ml BSA and 1 mM DT'T was distributed in 100 μL per well. The highest concentration of compound tested was added to the last well and titrated with 2 fold dilutions for a final of 10 concentrations to be run. 25 μL of the mixture was injected over a strepavidin-biotin-ε-aminohexanoic acid-EGQpYEEIPIA surface and regenerated with 4 μL of 20 mM HCl. […], of 150 mM Tris base was injected after every 11 samples. Typically 8 assays were run in an overnight programmed run.

T1 sequence (P06239 127-224 limits assumed): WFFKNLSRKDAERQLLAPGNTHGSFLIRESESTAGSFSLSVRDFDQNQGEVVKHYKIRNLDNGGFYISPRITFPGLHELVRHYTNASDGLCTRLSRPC

Row | SMILES | Kd
1 | COc1ccc(Cn2ccc(C)c(NC(=O)C(Cc3ccc(C(C)(C)C(=O)O)cc3)N(C)C(=O)Cc3ccc4ccccc4c3)c2=O)cc1 (racemic) [Compound 152, 3-[2'-(R,S)-(N-Methyl-N-(2""-naphthylacetyl)amino-3'-[4"-(1'"-carboxy-1'"-methyl)ethyl]benzene]propanoylamino-1-(4-methoxybenzyl)-4-methyl-2-pyridone] | 4.5 µM
2 | COc1ccc(Cn2ccc(C)c(NC(=O)[C@H](Cc3ccc(CC(=O)O)cc3)NC(C)=O)c2=O)cc1 [Compound 89] | 19 µM
3 | Cc1ccn(Cc2ccc(C(=O)C(F)(F)F)cc2)c(=O)c1NC(=O)C(Cc1ccc(C(C)(C)C(=O)O)cc1)NC(=O)C(C)(C)c1ccc2ccccc2c1 (stereo not drawn) [Compound 225] | 41 µM
4 | COc1ccc(Cn2ccc(C)c(NC(=O)[C@H](Cc3ccc(NC(=O)C(=O)O)cc3)NC(=O)Cc3ccc(NCC(C)(C)C)cc3)c2=O)cc1 [Compound 48] | 0.5 µM
5 | Cc1ccn(Cc2ccccc2)c(=O)c1NC(=O)C(Cc1ccc(C(C)(C)C(=O)O)cc1)NC(=O)Cc1cccc2ccccc12 (stereo not drawn) [Compound 197] | 9 µM
6 | CCN(CC)c1ccc(CC(=O)N[C@@H](Cc2ccc(NC(=O)C(=O)O)cc2)C(=O)Nc2c(C)ccn(Cc3ccc(OC)cc3)c2=O)cc1 [Compound 40] | 1.9 µM
7 | Cc1ccn(CC2CCCCC2)c(=O)c1NC(=O)[C@H](Cc1ccc(CC(=O)O)cc1)NC(=O)C(C)(C)C [Compound 67] | 64 µM
8 | COc1ccc(Cn2ccc(C)c(NC(=O)[C@H](Cc3ccc(C(C)(C)C(=O)O)cc3)NC(=O)[C@@H](C)c3cccc4ccccc34)c2=O)cc1 [Compound 45] | 3.4 µM
9 | CCC(=O)N[C@@H](Cc1ccc(CC(=O)O)cc1)C(=O)Nc1c(C)ccn(Cc2ccc(OC)cc2)c1=O [Compound 74] | 14 µM
10 | COc1ccc(Cn2ccc(C)c(NC(=O)[C@H](Cc3ccc(NC(=O)C(=O)O)cc3)NC(=O)Cc3csc(-c4cnccn4)n3)c2=O)cc1 [Compound 17] | 3.4 µM
11 | COc1ccc(Cn2ccc(C)c(NC(=O)C(Cc3ccc(C(C)(C)C(=O)O)cc3)NC(=O)C(C)(C)c3ccc4ccccc4c3)c2=O)cc1O (stereo not drawn) [Compound 232] | 33 µM
12 | COc1ccc(Cn2cc(Br)c(C)c(NC(=O)[C@H](Cc3ccc(C(C)(C)C(=O)O)cc3)NC(=O)C(C)(C)c3ccc(C(F)(F)F)cc3)c2=O)cc1 [Compound 227] | 0.37 µM
13 | Cc1ccn(Cc2ccc(C(=O)C(F)(F)F)cc2)c(=O)c1NC(=O)C(Cc1ccc(C(C)(C)C(=O)O)cc1)NC(=O)Cc1ccc2ccccc2c1 (stereo not drawn) [Compound 226] | 33 µM
14 | COc1ccc(Cn2ccc(C)c(NC(=O)[C@H](Cc3ccc(NC(=O)C(=O)O)cc3)NC(=O)OC(C)(C)C)c2=O)cc1 [Compound 4] | 42.5 µM
15 | COc1ccc(Cn2ccc(C)c(NC(=O)[C@H](Cc3ccc(CC(=O)O)cc3)NC(=O)C(C)(C)C)c2=O)cc1 [Compound 63] | 12 µM
16 | COc1ccc(Cn2ccc(C)c(NC(=O)[C@H](Cc3ccc(CC(=O)O)cc3)NC(=O)Cc3cccc4ccccc34)c2=O)cc1 [Compound 88] | 4.4 µM
17 | COc1ccc(Cn2ccc(C)c(NC(=O)[C@H](Cc3ccc(C(F)(F)P(=O)(O)O)cc3)NC(=O)Cc3cccc4ccccc34)c2=O)cc1 [Compound 66] | 0.43 µM

Row | SMILES | Kd
18 | COc1ccc(Cn2ccc(C)c(NC(=O)[C@H](Cc3ccc(CC(=O)O)cc3)NC(=O)Cc3cc4ccccc4[nH]3)c2=O)cc1 [Compound 41] | 4.7 µM
19 | COCCOCn1ccc(C)c(NC(=O)C(Cc2ccc(C(C)(C)C(=O)O)cc2)NC(=O)C(C)(C)c2ccc3ccccc3c2)c1=O (stereo not drawn) [Compound 190] | 43 µM
20 | COc1ccc(Cn2cc(Br)c(C)c(NC(=O)C(Cc3ccc(C(C)(C)C(=O)O)cc3)NC(=O)C(C)(C)c3ccc(Br)cc3)c2=O)cc1 (stereo not drawn) [Compound 122] | 5.3 µM
21 | COc1ccc(Cn2cccc(NC(=O)[C@H](Cc3ccc(CC(=O)O)cc3)NC(=O)Cc3cccc4ccccc34)c2=O)cc1 [Compound 90] | > 250 µM
22 | COc1ccc(Cn2ccc(C)c(NC(=O)[C@H](Cc3ccc(CC(=O)O)cc3)NC(=O)Cc3ccccc3)c2=O)cc1 [Compound 58] | 5.6 µM
23 | Cc1ccn(C/C=C/c2ccccc2)c(=O)c1NC(=O)C(Cc1ccc(C(C)(C)C(=O)O)cc1)NC(=O)C(C)(C)c1ccc2ccccc2c1 (racemic) [Compound 116] | 3.2 µM
24 | COc1ccc(Cn2ccc(C)c(NC(=O)[C@H](Cc3ccc(CC(=O)O)cc3)NC(=O)Cc3ccc(Oc4ccccc4)cc3)c2=O)cc1 [Compound 71] | 14 µM
25 | COc1ccc(Cn2ccc(C)c(NC(=O)[C@H](Cc3ccc(NC(=O)C(=O)O)cc3)NC(=O)Cc3cccc4ccccc34)c2=O)cc1 [Compound 52] | 0.24 µM
26 | COc1ccc(Cn2ccc(C)c(NC(=O)[C@H](Cc3ccc(CC(=O)O)cc3)NC(=O)COc3cccc4cnccc34)c2=O)cc1 [Compound 84] | 400 µM
27 | Cc1ccn(CC2CCCCC2)c(=O)c1NC(=O)[C@H](Cc1ccc(CC(=O)O)cc1)NC(=O)Cc1cccc2ccccc12 [Compound 68] | 12 µM
28 | COc1ccc(Cn2ccc(C)c(NC(=O)[C@H](Cc3ccc(NC(=O)C(=O)O)cc3)NC(=O)Cc3c[nH]c4ccccc34)c2=O)cc1 [Compound 5] | 1.3 µM
29 | COc1ccc(Cn2c(C)cc(C)c(NC(=O)[C@H](Cc3ccc(CC(=O)O)cc3)NC(=O)Cc3cccc4ccccc34)c2=O)cc1 [Compound 91] | 4.8 µM
30 | CCCCCn1ccc(C)c(NC(=O)C(Cc2ccc(C(C)(C)C(=O)O)cc2)NC(=O)Cc2cccc3ccccc23)c1=O (stereo not drawn) [Compound 191] | 3.1 µM
31 | Cc1ccc(Cn2ccc(C)c(NC(=O)[C@H](Cc3ccc(CC(=O)O)cc3)NC(=O)Cc3cccc4ccccc34)c2=O)cc1 [Compound 56] | 7.1 µM
32 | Cc1ccn(CCCCC(C)C)c(=O)c1NC(=O)C(Cc1ccc(C(C)(C)C(=O)O)cc1)NC(=O)OCc1ccccc1 (racemic) [Compound 146, 3-[2'-(R,S)-Benyloxycarbonylamino-3'-[4"-(1'"-carboxy-1'"-methyl)ethyl]benzene]propanoylamino-1-(5-methylhexyl)-4-methyl-2-pyridone] | 13 µM
33 | Cc1ccn(Cc2ccc(C(C)C)cc2)c(=O)c1NC(=O)[C@H](Cc1ccc(CC(=O)O)cc1)NC(=O)Cc1cccc2ccccc12 [Compound 54] | > 500 µM

Next, values leading:

Row | Kd | SMILES
34 | 32 µM | COc1ccc(C(C)n2ccc(C)c(NC(=O)[C@H](Cc3ccc(CC(=O)O)cc3)NC(=O)C(C)(C)C)c2=O)cc1 (stereo partly drawn) [Compound 82]
35 | 17 µM | COc1ccc(Cn2ccc(C)c(NC(=O)[C@H](Cc3ccc(CC(=O)O)cc3)NC(=O)Cc3cc(=O)oc4cc(N(C)C)ccc34)c2=O)cc1 [Compound 64]
36 | 6.7 µM | COc1ccc(Cn2ccc(C)c(NC(=O)[C@H](Cc3ccc(NC(=O)C(=O)O)cc3)NC(=O)Cc3csc(N)n3)c2=O)cc1 [Compound 10]
37 | 12 µM | COc1ccc(Cn2ccc(C)c(NC(=O)[C@H](Cc3ccc(NC(=O)C(=O)O)cc3)NC(=O)Nc3ccc(C(C)C)cc3)c2=O)cc1 [Compound 103]
38 | 0.99 µM | COc1ccc(Cn2ccc(C)c(NC(=O)[C@H](Cc3ccc(C(O)C(=O)O)cc3)NC(=O)Cc3cccc4ccccc34)c2=O)cc1 (stereo partly drawn) [Compound 8, 3-[2'-(S)-(1""-Naphthylacetyl)amino-3'-[4"-(1'"-hydroxy-1'"-carboxy)methyl]benzene]propanoylamino-1-(4-methoxybenzyl)-4-methyl-2-pyridone]
39 | 89 µM | CCCCCn1ccc(C)c(NC(=O)[C@H](Cc2ccc(CC(=O)O)cc2)NC(=O)C(C)(C)C)c1=O [Compound 69]
40 | 0.87 µM | COc1ccc(Cn2ccc(C)c(NC(=O)[C@H](Cc3ccc(C(C)(C)C(=O)O)cc3)NC(=O)Cc3ccccc3C)c2=O)cc1 [Compound 113]
41 | 1.6 µM | COc1ccc(Cn2cc(Br)c(C)c(NC(=O)[C@H](Cc3ccc(C(C)(C)C(=O)O)cc3)NC(=O)C(C)(F)c3ccc(C(F)(F)F)cc3)c2=O)cc1 (stereo partly drawn) [Compound 234]
42 | 20 µM | COc1ccc(Cn2ccc(C)c(NC(=O)[C@H](Cc3ccc(CC(=O)O)cc3)NC(=O)C3(c4ccccc4)CCOCC3)c2=O)cc1 [Compound 80]
43 | 3.7 µM | COc1ccc(Cn2ccc(C)c(NC(=O)[C@H](Cc3ccc(NC(=O)C(=O)O)cc3)NC(=O)Cc3ccc([N+](=O)[O-])cc3)c2=O)cc1 [Compound 33]
44 | > 250 µM | COc1ccc(Cn2ccc(C)c(NC(=O)[C@H](Cc3ccc(CC(=O)O)cc3)NC(=O)Cc3ccccc3Oc3ccccc3)c2=O)cc1 [Compound 73]
45 | 2.1 µM | COc1ccc(Cn2ccc(C)c(NC(=O)[C@H](Cc3ccc(NC(=O)C(=O)O)cc3)NC(=O)Cc3ccc(NC(C)C)cc3)c2=O)cc1 [Compound 47]
46 | 23 µM | Cc1ccn(CC2CCOC2)c(=O)c1NC(=O)C(Cc1ccc(C(C)(C)C(=O)O)cc1)NC(=O)C(C)(C)c1ccc2ccccc2c1 (stereo not drawn) [Compound 212]
47 | 5.6 µM | COc1ccc(Cn2ccc(C)c(NC(=O)[C@H](Cc3ccc(C(CO)C(=O)O)cc3)NC(=O)Cc3cccc4ccccc34)c2=O)cc1 (stereo partly drawn) [Compound 136, 3-[2'-(S)-(1'"-Naphthylacetyl)amino-3'-[4"-(1'"-(R,S)-carboxy-2'"-hydroxy)ethyl]benzene]propanoylamino-1-(4-methoxybenzyl)-4-methyl-2-pyridone]
48 | 2.1 µM | COc1c(F)c(F)c(Cn2ccc(C)c(NC(=O)C(Cc3ccc(C(C)(C)C(=O)O)cc3)NC(=O)Cc3ccc4ccccc4c3)c2=O)c(F)c1F (stereo not drawn) [Compound 153]
